Assay results taken from US20190159450A1, “PYRIDINE-BASED COMPOUND INCLUDING ISOXAZOLINE RING AND USE THEREOF AS HERBICIDE” (MOGHU RESEARCH CENTER LTD., priority 2016, published 2019).

Assays:
Format in all cases: in vivo
Aeschynomene indica [1] = assay: Herbicidal activity test, pre-weeds emergence treatment; conditions: assessed 2 to 3 weeks after spraying, scale 0-10 (0: no effect, 10: complete death)
Description: (§1) A rectangular plastic pot with a surface area of 300 cm^2 was filled with sandy loam soil and mixed soil at a ratio of 1:1, and four kinds of weeds including Quamoclit pennata, Abutilon theophrasti Medicus, and Aeschynomene indica, Xanthium strumarium were sown therein. In another pot made in the same way, three kinds of crop seeds including maize, wheat, and rice were sown. The pots were watered and one day later, a medicament was sprayed thereon. The spraying was performed by using a track sprayer (R&D Sprayer, USA) equipped with Teejet 8002EVS (Spraying Systems Co., USA) nozzle, and the spray amount was controlled to be 1000 L/ha. A spray solution was prepared by dissolving the compound of each example or a control material in acetone, and then, adding the same amount of 0.1% (v/v) tween 20 aqueous solution thereto. The spray amount was 200 g/ha. The pots were placed in a greenhouse in which the temperature was maintained at 25° C. to 30° C. during the day and 15° C. to 25° C. during the night, and was regularly watered. After 2 to 3 weeks from the spraying of the compounds or the control material, the efficacy and the damages on each weed and each crop were assessed according to the scale of 0-10 (0: no effect, 10: complete death) scale and the results are shown in Table 3 below.
(§2) Pots for crops and weeds were prepared in the same manner as the test method illustrated in Table 3, and three kinds of weeds selected from Quamoclit pennata, Abutilon theophrasti Medicus, and Aeschynomene indica, Xanthium strumarium were used.

[2] = system: Abutilon theophrasti Medicus; assay: as above; conditions: assessed 2 to 3 weeks after spraying, scale 0-10 (0: no effect, 10: complete death)
Description: as §1, §2

Quamoclit pennata [3] = assay: as above; conditions: assessed 2 to 3 weeks after spraying, scale 0-10 (0: no effect, 10: complete death)
Description: as §1, §2

Xanthium strumarium [4] = assay: as above; conditions: assessed 2 to 3 weeks after spraying, scale 0-10 (0: no effect, 10: complete death)
Description: as §1, §2

wheat [5] = assay: Herbicidal activity test, post-weeds emergence treatment (crop damage); conditions: assessed after 2 to 3 weeks, 0: no effect, 10: complete death
Description: as §1
(§3) Pots for crops and weeds were prepared in the same manner as in Experimental Example 1, and then, when the crops and the weeds were raised up to 2 weeks roughly on a third-leaf stage, the compounds and the control material were sprayed thereon in the same manner as described above. The spray amount was 200 g/ha. After 2 to 3 weeks from the spraying of the test substance or the control substance, the efficacy and the damages on each weed and each crop were assessed according to the scale of 0-10 (0: no effect, 10: complete death) scale.
as §2, with “5,” for “3,”, “four” for “three”, “used. The spray amount was 200 g/ha for crops and 50 g/ha for weeds.” for “used.”

rice [6] = assay: as above; conditions: assessed after 2 to 3 weeks, 0: no effect, 10: complete death
Description: as §1, §3
as §2, with “5,” for “3,”, “four” for “three”, “used. The spray amount was 200 g/ha for crops and 50 g/ha for weeds.” for “used.”

maize [7] = assay: as above; conditions: assessed after 2 to 3 weeks, 0: no effect, 10: complete death
Description: as §1, §3
as §2, with “5,” for “3,”, “four” for “three”, “used. The spray amount was 200 g/ha for crops and 50 g/ha for weeds.” for “used.”

Aeschynomene indica [8] = assay: Herbicidal activity test, post-weeds emergence treatment; conditions: assessed after 2 to 3 weeks, 0: no effect, 10: complete death
Description: as §1, §3
as §2, with “5,” for “3,”, “four” for “three”, “used. The spray amount was 200 g/ha for crops and 50 g/ha for weeds.” for “used.”

[9] = system: Abutilon theophrasti Medicus; assay: as above; conditions: assessed after 2 to 3 weeks, 0: no effect, 10: complete death
Description: as §1, §3
as §2, with “5,” for “3,”, “four” for “three”, “used. The spray amount was 200 g/ha for crops and 50 g/ha for weeds.” for “used.”

Quamoclit pennata [10] = assay: as above; conditions: assessed after 2 to 3 weeks, 0: no effect, 10: complete death
Description: as §1, §3
as §2, with “5,” for “3,”, “four” for “three”, “used. The spray amount was 200 g/ha for crops and 50 g/ha for weeds.” for “used.”

Xanthium strumarium [11] = assay: as above; conditions: assessed after 2 to 3 weeks, 0: no effect, 10: complete death
Description: as §1, §3
as §2, with “5,” for “3,”, “four” for “three”, “used. The spray amount was 200 g/ha for crops and 50 g/ha for weeds.” for “used.”

wheat [12] = assay: Herbicidal activity test, pre-weeds emergence treatment (crop damage); conditions: assessed 2 to 3 weeks after spraying, scale 0-10 (0: no effect, 10: complete death)
Description: as §1, §2

rice [13] = assay: as above; conditions: assessed 2 to 3 weeks after spraying, scale 0-10 (0: no effect, 10: complete death)
Description: as §1, §2

maize [14] = assay: as above; conditions: assessed 2 to 3 weeks after spraying, scale 0-10 (0: no effect, 10: complete death)
Description: as §1, §2

[15] = spray amount 200 g/ha for crops, Table 6
[16] = spray amount 50 g/ha for weeds, Table 6

SMILES	PRE AESIN (Aeschynomene indica), efficacy score (Aeschynomene indica [1]; Table 3, 200 g/ha)	PRE ABUTH (Abutilon theophrasti Medicus), efficacy score ([2]; Table 3, 200 g/ha)	PRE IPOAN (Quamoclit pennata), efficacy score (Quamoclit pennata [3]; Table 3, 200 g/ha)	PRE XANST (Xanthium strumarium), efficacy score (Xanthium strumarium [4]; Table 3, 200 g/ha)	TRZAW (wheat) damage, scale of 0-10 (wheat [5]; spray amount 200 g/ha, Table 5)	ORYSA (rice) damage, scale of 0-10 (rice [6]; spray amount 200 g/ha, Table 5)	ZEAMX (maize) damage, scale of 0-10 (maize [7]; spray amount 200 g/ha, Table 5)	AESIN (Aeschynomene indica) herbicidal efficacy, scale of 0-10 (Aeschynomene indica [8]; spray amount 200 g/ha, Table 5)	ABUTH (Abutilon theophrasti Medicus) herbicidal efficacy, scale of 0-10 ([9]; spray amount 200 g/ha, Table 5)	IPOAN (Quamoclit pennata) herbicidal efficacy, scale of 0-10 (Quamoclit pennata [10]; spray amount 200 g/ha, Table 5)	XANST (Xanthium strumarium) herbicidal efficacy, scale of 0-10 (Xanthium strumarium [11]; spray amount 200 g/ha, Table 5)	PRE TRZAW (wheat), damage score (wheat [12]; Table 3, 200 g/ha)	PRE ORYSA (rice), damage score (rice [13]; Table 3, 200 g/ha)	PRE ZEAMX (maize), damage score (maize [14]; Table 3, 200 g/ha)	PRE AESIN (Aeschynomene indica), efficacy score (Aeschynomene indica [1]; Table 4, 200 g/ha)	PRE ABUTH (Abutilon theophrasti Medicus), efficacy score ([2]; Table 4, 200 g/ha)	PRE IPOAN (Quamoclit pennata), efficacy score (Quamoclit pennata [3]; Table 4, 200 g/ha)	PRE XANST (Xanthium strumarium), efficacy score (Xanthium strumarium [4]; Table 4, 200 g/ha)	TRZAW (wheat) damage, scale of 0-10 (wheat [5]; [15])	ORYSA (rice) damage, scale of 0-10 (rice [6]; [15])	further results
COC(=O)c1nc(C2CC(Cl)=NO2)cc(NC(C)=O)c1Cl (stereo not drawn) [Compound 1, methyl 4-acetamido-3-chloro-6-(3-chloro-4,5-dihydroisoxazol-5-yl)picolinate]	10	8	9	9	1	1	0	10	8	8	10	1	0	0							
COC(=O)c1nc(C2CC(Br)=NO2)cc(NC(C)=O)c1Cl (stereo not drawn) [Compound 3, methyl 4-acetamido-3-chloro-6-(3-bromo-4,5-dihydroisoxazol-5-yl)picolinate]	10	10	8	8	0	0	0	10	3	6	10	0	0	0							
COC(=O)c1nc(C2CC(C(F)(F)F)=NO2)cc(NC(C)=O)c1Cl (stereo not drawn) [Compound 4, methyl 4-acetamido-3-chloro-6-(3-(trifluoromethyl)-4,5-dihydroisoxazol-5-yl)picolinate]	8	6	7	6	0	0	0	10	3	3	8	0	0	0							
COC(=O)c1nc(C2CC(Br)=NO2)cc(N)c1Cl (stereo not drawn) [Compound 33, methyl 4-amino-3-chloro-6-(3-bromo-4,5-dihydroisoxazol-5-yl)picolinate]															10	6	6	10	0	0	ZEAMX (maize) damage, scale of 0-10 (maize [7]; [15]): 0; AESIN (Aeschynomene indica) herbicidal efficacy, scale of 0-10 (Aeschynomene indica [8]; [16]): 9; ABUTH (Abutilon theophrasti Medicus) herbicidal efficacy, scale of 0-10 [9, 16]: 7; IPOAN (Quamoclit pennata) herbicidal efficacy, scale of 0-10 (Quamoclit pennata [10]; [16]): 5; XANST (Xanthium strumarium) herbicidal efficacy, scale of 0-10 (Xanthium strumarium [11]; [16]): 10; PRE TRZAW (wheat), damage score (wheat [12]; Table 4, 200 g/ha): 0; PRE ORYSA (rice), damage score (rice [13]; Table 4, 200 g/ha): 0; PRE ZEAMX (maize), damage score (maize [14]; Table 4, 200 g/ha): 2
Nc1cc(C2CC(Br)=NO2)nc(C(=O)O)c1Cl (stereo not drawn) [Compound 34, 4-amino-3-chloro-6-(3-bromo-4,5-dihydroisoxazol-5-yl)picolinic acid]															10	9	10	10	0	2	ZEAMX (maize) damage, scale of 0-10 (maize [7]; [15]): 0; AESIN (Aeschynomene indica) herbicidal efficacy, scale of 0-10 (Aeschynomene indica [8]; [16]): 10; ABUTH (Abutilon theophrasti Medicus) herbicidal efficacy, scale of 0-10 [9, 16]: 6; IPOAN (Quamoclit pennata) herbicidal efficacy, scale of 0-10 (Quamoclit pennata [10]; [16]): 3; XANST (Xanthium strumarium) herbicidal efficacy, scale of 0-10 (Xanthium strumarium [11]; [16]): 10; PRE TRZAW (wheat), damage score (wheat [12]; Table 4, 200 g/ha): 0; PRE ORYSA (rice), damage score (rice [13]; Table 4, 200 g/ha): 0; PRE ZEAMX (maize), damage score (maize [14]; Table 4, 200 g/ha): 0
COC(=O)c1nc(C2CC(Cl)=NO2)cc(N)c1Cl (stereo not drawn) [Compound 37, methyl 4-amino-3-chloro-6-(3-chloro-4,5-dihydroisoxazol-5-yl)picolinate]	10	10	10	10	1	1	0	10	10	8	10	0	0	0	10	10	7	10	0	0	ZEAMX (maize) damage, scale of 0-10 (maize [7]; [15]): 0; AESIN (Aeschynomene indica) herbicidal efficacy, scale of 0-10 (Aeschynomene indica [8]; [16]): 10; ABUTH (Abutilon theophrasti Medicus) herbicidal efficacy, scale of 0-10 [9, 16]: 10; IPOAN (Quamoclit pennata) herbicidal efficacy, scale of 0-10 (Quamoclit pennata [10]; [16]): 8; XANST (Xanthium strumarium) herbicidal efficacy, scale of 0-10 (Xanthium strumarium [11]; [16]): 10; PRE TRZAW (wheat), damage score (wheat [12]; Table 4, 200 g/ha): 0; PRE ORYSA (rice), damage score (rice [13]; Table 4, 200 g/ha): 1; PRE ZEAMX (maize), damage score (maize [14]; Table 4, 200 g/ha): 0
Nc1cc(C2CC(Cl)=NO2)nc(C(=O)O)c1Cl (stereo not drawn) [Compound 38, 4-amino-3-chloro-6-(3-chloro-4,5-dihydroisoxazol-5-yl)picolinic acid]	10	10	10	10	0	3	1	10	10	9	10	2	7	0							
COC(=O)c1nc(C2CC(C(F)(F)F)=NO2)cc(N)c1Cl (stereo not drawn) [Compound 39, methyl 4-amino-3-chloro-6-(3-trifluoromethyl-4,5-dihydroisoxazol-5-yl)picolinate]	8	4	6	6	0	0	0	10	3	4	10	0	1	0							
